Where two headings read alike, the source gives them in different places.
Columns and labels:
[1] = molecular target: T1, HMG-CoA reductase (HMG-CoA-r) (Homo sapiens, UniProt P04035); conditions: competitive enzymatic inhibition; cited from earlier work
T1 sequence (P04035 1-888): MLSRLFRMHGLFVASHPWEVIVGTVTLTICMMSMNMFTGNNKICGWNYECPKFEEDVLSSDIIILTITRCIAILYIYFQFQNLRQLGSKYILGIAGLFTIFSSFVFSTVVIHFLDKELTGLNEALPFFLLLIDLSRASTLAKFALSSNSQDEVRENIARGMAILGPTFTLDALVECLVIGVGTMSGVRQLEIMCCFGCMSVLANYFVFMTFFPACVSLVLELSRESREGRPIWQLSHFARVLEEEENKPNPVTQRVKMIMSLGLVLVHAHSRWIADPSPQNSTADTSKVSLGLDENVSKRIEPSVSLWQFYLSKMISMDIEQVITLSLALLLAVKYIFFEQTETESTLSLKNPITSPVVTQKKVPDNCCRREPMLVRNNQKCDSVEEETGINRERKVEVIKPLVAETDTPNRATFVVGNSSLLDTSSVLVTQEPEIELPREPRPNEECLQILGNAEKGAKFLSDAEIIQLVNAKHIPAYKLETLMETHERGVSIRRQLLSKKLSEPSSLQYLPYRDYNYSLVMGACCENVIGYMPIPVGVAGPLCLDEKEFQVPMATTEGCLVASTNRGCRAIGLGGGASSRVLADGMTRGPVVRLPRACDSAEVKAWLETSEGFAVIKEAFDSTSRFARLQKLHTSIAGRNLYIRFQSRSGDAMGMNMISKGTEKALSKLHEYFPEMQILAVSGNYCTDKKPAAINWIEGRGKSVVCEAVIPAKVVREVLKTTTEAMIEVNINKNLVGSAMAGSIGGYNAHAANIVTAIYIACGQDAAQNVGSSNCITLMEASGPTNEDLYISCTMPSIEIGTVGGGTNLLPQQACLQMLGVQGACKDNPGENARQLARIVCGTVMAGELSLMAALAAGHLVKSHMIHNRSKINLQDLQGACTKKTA

[2] = NOAEL, repeated daily doses in the animal; format: in vivo; conditions: extrapolated from the animal NOAEL
Procedure: In man the NOAEL is 6 mg.

[3] = doses repeated daily in the animal; cited from earlier work
[4] = in man; cited from earlier work

SMILES	activity for the enzyme relative to the natural substrate HMG-CoA [1] [times]	NOAEL of the animal, corresponding amount in man [2]	NOAEL (no observed adverse effect level) [3] [mg/kg]	NOAEL (no observed adverse effect level) [4] [mg]
CC[C@H](C)C(=O)O[C@H]1C[C@@H](C)C=C2C=C[C@H](C)[C@H](CC[C@@H]3C[C@@H](O)CC(=O)O3)[C@H]21 [Monacolin K]	2000	–	–	–
CC1=C(/C=C/C(C)=C/C=C/C(C)=C/C=C/C=C(C)/C=C/C=C(C)/C=C/C2=C(C)C(=O)[C@@H](O)CC2(C)C)C(C)(C)C[C@H](O)C1=O [AX, 3,3′-dihydroxy-β,β′-carotene-4,4′-dione]	–	more than 80 g	1340	6
